What was measured:
[1] = Tolerability of daily i.p. injections with necropsy; format: in vivo, wild-type mice; details: ≦50 mg/kg i.p. daily, 16 days
[2] = test system: APP; assay: APP processing in vivo (sAPPα, sAPPβ immunoblot); design: species or system wild-type mice; details: 30 mg/kg i.p., 2 weeks
Method: To test whether BTA-EG4 alters Aβ production in vitro, primary cortical neurons were treated with BTA-EG4 (1 or 5 μM) or control (10% DMSO), and Aβ levels were measured using ELISA. […] We then examined whether BTA-EG4 can alter Aβ levels in vivo by injecting wild-type mice daily for 2 weeks with BTA-EG4 (15 or 30 mg/kg, 10% DMSO in saline, i.p.). […] Furthermore, BTA-EG4 altered APP processing in vivo, as monitored by increased sAPPα (α-secretase cleavage product) and decreased sAPPβ (β-secretase cleavage product) levels in BTA-EG4 injected wild-type mice (30 mg/kg, i.p) compared to control-injected mice (FIGS. 1E, 1F).

[3] = molecular target: T1, APP (Rattus norvegicus, UniProt P08592); assay: Cell surface biotinylation, primary cortical neurons; format: cell-based; details: 5 μM, 24 h
T1 construct: BTA-EG4 increased endogenous cell surface APP levels in primary cortical neurons; endogenous in cells; host or cells: primary cortical neurons
T1 sequence (P08592 18-770): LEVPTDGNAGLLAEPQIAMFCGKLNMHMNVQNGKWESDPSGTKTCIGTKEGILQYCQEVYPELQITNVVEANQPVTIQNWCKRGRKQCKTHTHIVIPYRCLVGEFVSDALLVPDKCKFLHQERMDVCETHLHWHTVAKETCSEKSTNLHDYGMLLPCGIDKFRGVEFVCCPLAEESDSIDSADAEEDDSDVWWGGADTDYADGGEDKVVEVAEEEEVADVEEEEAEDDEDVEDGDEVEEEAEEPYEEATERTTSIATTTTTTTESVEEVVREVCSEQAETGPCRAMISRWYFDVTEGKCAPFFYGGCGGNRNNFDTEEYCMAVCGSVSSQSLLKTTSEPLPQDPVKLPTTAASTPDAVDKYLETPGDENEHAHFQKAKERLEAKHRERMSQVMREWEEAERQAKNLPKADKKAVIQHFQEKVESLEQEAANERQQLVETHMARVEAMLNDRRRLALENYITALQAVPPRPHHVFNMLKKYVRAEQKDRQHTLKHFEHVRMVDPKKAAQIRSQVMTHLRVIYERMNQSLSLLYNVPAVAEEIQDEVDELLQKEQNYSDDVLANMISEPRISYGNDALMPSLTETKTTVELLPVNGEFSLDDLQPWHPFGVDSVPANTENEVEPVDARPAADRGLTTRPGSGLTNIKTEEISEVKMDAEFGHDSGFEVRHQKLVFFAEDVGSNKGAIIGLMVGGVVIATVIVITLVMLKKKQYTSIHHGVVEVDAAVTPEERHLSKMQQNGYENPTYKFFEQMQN
Method: Cell surface biotinylation. COS7 cells were transiently transfected with APP for 24 hr in OPTI-MEM® containing 10% fetal bovine serum, and then treated with BTA-EG4 or control for 24 hr. After 24 hr, surface proteins were biotin labeled, immobilized with NeutrAvidin™ Gel and incubated 1 h with SDS-PAGE sample buffer, including 50 mM DTT, as described previously (Minami et al., 2010). Eluates were analyzed for APP by immunoblotting.
It is well known that the majority of a-secretase activity occurs on the cell surface, while β- and γ-secretase activity occurs primarily in the early and late endosomes (Huse et al., 2000; Reiss et al., 2006). Thus, if APP is present at the cell's surface, it is preferentially cleaved by α-secretase, resulting in decreased Aβ production. Therefore, we examined whether BTA-EG4 regulates cell surface expression of APP. To test this initially, COS7 cells were transfected with human APP and treated with BTA-EG4 (5 μM) or control (10% DMSO) for 24 h. […] Furthermore, BTA-EG4 increased endogenous cell surface APP levels in primary cortical neurons following 24 h of BTA-EG4 (5 μM) treatment compared with control (10% DMSO) treatment (FIG. 1I). In an alternative approach to examine the effect of BTA-EG4 on cell surface APP expression, we conducted live cell-surface immunostaining in primary hippocampal neurons.

[4] = test system: RasGRF1, p-ERK, p-CREB; assay: Ras signaling immunofluorescence, primary hippocampal neurons; format: cell-based, Sprague-Dawley rats; details: 5 μM
Method: Primary neuron culture and immunostaining. Primary hippocampal neurons from E19 Sprague-Dawley rats were cultured at 150 cells/mm^2 as previously described (Pak et al., 2001). Neurons were transfected using Lipofectamine™ 2000 (Invitrogen, Carlsbad, Calif., USA) or calcium phosphate precipitation with GFP+PLL, GFP+APP shRNA, or GFP+APP and treated with BTA-EG4. The following antibodies were used: mouse anti-GFP (Novus Biologicals, 9F9.F9), rabbit anti-GFP (Invitrogen, A11122), rabbit anti-GluR1 (Calbiochem, PC246), mouse anti-GluR2 (BD Pharmagen, 556341), mouse anti-postsynaptic density (PSD)-95 (NeuroMabs, Davis, Calif., USA), mouse anti-Synaptophysin (Sigma Aldrich, s5768), rabbit APP N-terminal (Sigma-Aldrich, A8967), anti-Ras (BD Biosciences, 610001), anti-RasGRF1 (Santa Cruz, C-20; BD Biosciences, 610149), anti-ERK1/2 (Cell Signaling, 4695), anti-p-ERK1/2 (Invitrogen, 36880), anti-CREB (Cell Signaling, D76D11), anti-p-CREB (Millipore, 06-519), and mouse anti-c-Myc (Novus Biologicals, 9E10). Cultured hippocampal neuron images were acquired by LSM 510 laser scanning confocal microscope (Zeiss). Confocal zseries image stacks encompassing entire dendrite segments were analyzed using MetaMorph software (Universal Imaging Corporation, Downington, Pa., USA).
We next investigated the molecular mechanism by which BTA-EG4 may alter dendritic spine formation. Ras, a small GTPase, is involved in dendritic spine formation and synaptic delivery of AMPA receptors (Zhu et al., 2002; Lee et al., 2011). Moreover, abnormal Ras signaling is associated with neurodegenerative disease, causing cognitive impairments and learning deficits (Stornetta and Zhu, 2011). Thus, we initially investigated the effect of BTA-EG4 on Ras signaling by treating primary hippocampal neurons with BTA-EG4 (5 μM) or control for 24 hrs. […] Further, levels of active Ras were elevated following BTA-EG4 treatment (5 μM) in primary cortical neurons (FIG. 7C) and following BTA-EG4 treatment (30 mg/kg) in wild-type mice (FIG. 7D). We also examined whether BTA-EG4 can alter the activity of downstream Ras signaling proteins, including p-ERK and p-CREB.
Since we observed that BTA-EG4 and APP could possibly regulate dendritic spine density through Ras-dependent mechanisms, we then examined whether BTA-EG4 requires APP to modulate Ras signaling. To test this hypothesis, primary hippocampal neurons were transfected with GFP and APP shRNA or GFP and APP, treated with control or BTA-EG4 (5 μM), then immunostained against RasGRF1 (FIGS. 9A, 9B).

[5] = test system: soluble Aβ 40; assay: Aβ ELISA, 3× Tg AD mice; format: in vivo; details: 30 mg/kg daily, 2 weeks
Method: Aβ ELISA. Mouse brains were homogenized in tissue homogenization buffer containing 250 mM sucrose, 20 mM Tris base, protease, and phosphatase inhibitors. To measure soluble Aβ, DEA extraction was performed. Crude 10% homogenate was mixed with an equal volume of 0.4% diethylamine (DEA), sonicated, and ultracentrifuged for 1 hr at 100,000×g. The supernatant was collected and neutralized with 10% 0.5 M Tris, pH 6.8. Sensitive and specific ELISAs to rodent Aβ1-40 was purchased from IBL Transatlantic (Toronto, Canada) and conducted per the manufacturer's protocol.

## BTA-EG4
[1]
  necropsy findings: no adverse effects on major organs
  tolerability of daily injections: well tolerated
[2]
  sAPPα levels: increased
  sAPPβ levels: decreased
[3]
  endogenous cell surface APP levels: increased
[4]; 24 h
  levels of RasGRF1: increased
  phosphorylation of CREB: increased
  phosphorylation of ERK: increased
  total ERK or CREB levels: without altering
[4]; knockdown of APP
  RasGRF1: did not increase
  p-CREB: ineffective
  p-ERK: ineffective
[4]; overexpression of APP
  RasGRF1: significantly increased
  p-CREB: significantly increased
  p-ERK: significantly increased
[5]; 2-3 months
  soluble Aβ 40 levels: decrease
[5]; 6-10 months
  soluble Aβ 40 level: without changes
[5]; 13-16 months
  soluble Aβ 40 level: none of the measured parameters were significantly altered
